The conditions of data set [1]: reference range; cited from earlier work.
Data set [2] is described as follows: Tacrolimus concentration in infra orbital nerves, muscle and PEUU wraps (Example 3). It counts as in vivo, Lewis rats. Conditions: Lewis, rat, daily intraperitoneal injections 1 mg/kg for 14 days. How it is done: Animals and Surgeries. All animals received care in compliance with the Institutional Animal Care and Use Committee and protocol approval from the University of Pittsburgh and followed guidelines from the Guide for the Care and Use of Laboratory Animals published by the U.S. National Institutes of Health. 10 Lewis rats (RT1) per group (treatment group, non-treatment group), aged 8-10 weeks, were anesthetized with 50 mg/kg intraperitoneal pentobarbital sodium and supplemented as necessary with 10 mg/kg injections. Sterile technique were utilized for all surgeries and a heating pad was used to maintain core animal temperature at 37° C.
The surgical procedure is described in depth in Xiao et al., 2016 and is briefly defined here. Proximal to the mystacial pad, an incision was made on the left hemiface distal to where the infraorbital nerve exits from the infraorbital foramen. Tissue was discretely dissected in order to expose the infraorbital branch of the trigeminal nerve and was transected using microscissors. […]
Quantification of Tacrolimus concentration in infra orbital nerves, muscle, and PEUU wraps. […] Drug concentration was measured by L-CMS/MS and the results were expressed as ng/g of tissue or wrap weight.
Quantification of Tacrolimus by LC-Tandem Mass Spectrometry (LC-MS/MS). […]

For data set [3] the following is noted: reference range; cited from earlier work. This is another data set of the same source.
In data set [4] the test system is retinal ganglion cells (RGCs). The data set is described as follows: RGC neurite growth and branching analysis. It counts as cell-based, rat. On the procedure: Retinal ganglion cell isolation. RGCs were isolated from female and male postnatal day three (P3) Sprague-Dawley rat pups, purified by immunopanning, and cultured in NB-SATO media as previously described (Barres, Silverstein et al. 1988). The RGCs were seeded (5×10^3/cm^2) on cell culture plates coated with poly-D-lysine (70 kDa, 10 μg/mL; Sigma-Aldrich Corp., St. Louis, Mo., USA) and laminin (2 μg/mL, Sigma-Aldrich Corp.), and maintained at 37° C. in 10% CO2 for 3 days.
RGC neurite growth analysis. Neurite growth was analyzed as previously described (Steketee, Oboudiyat et al. 2014). Briefly, RGCs were fixed after 3 DIV with 4% paraformaldehyde (Alfa Aesar; 30525-89-4) in PBS, washed with PBS (2×), and permeabilized with 0.2% triton X-100 in PBS for 15 minutes. After blocking for 1 hour (1% BSA, Fisher Scientific), the RGCs were incubated in anti-β III tubulin (1:300, TUJ-1, Millipore) at 4° C. overnight, washed in PBS (3×), incubated with a FITC-rabbit anti-chicken IgY H+L (1:150, #31501, Thermo Scientific) for 3 hours, washed with PBS (3×), counterstained with the nuclear marker DAPI (1:3000, Invitrogen) for 20 minutes at room temperature, and washed in PBS (2×, 5 min. each). The RGCs were observed as above using epifluorescent microscopy and analyzed using the ImageJ plugin, NeuronJ (National Institutes of Health, Bethesda, Md., USA). Neurites were defined as any projection longer than twice the cell body, and branches were quantified as the number of secondary neurites extending from a primary neurite that originated at the cell body. At least 30 neurons were analyzed blindly as previously described for three independent experimental repeats, totaling at least 90 neurons per condition.

For a further data set, the system named is GAP-43 expression. The data set is described as follows: GAP-43 immunohistochemistry of optic nerve after optic nerve crush. It counts as in vivo, Sprague-Dawley rats. The note with it: 14 days after optic nerve crush, systemic tacrolimus treatment.

Here are results for one compound from patent US11529318B2, “Devices and methods for local delivery of tacrolimus” (UNIVERSITY OF PITTSBURGH—OF THE COMMONWEALTH SYSTEM OF …, priority 2017, dated 2022).

Read-outs that look alike come from different tables or passages of the source.

For `C=CC[C@@H]1/C=C(\C)C[C@H](C)C[C@H](OC)[C@H]2O[C@@](O)(C(=O)C(=O)N3CCCC[C@H]3C(=O)O[C@H](/C(C)=C/[C@@H]3CC[C@@H](O)[C@H](OC)C3)[C@H](C)[C@@H](O)CC1=O)[C@H](C)C[C@@H]2OC` [tacrolimus], in data set [1], the “therapeutic trough levels (blood)” value is 5 to 10 ng/mL. Besides, in data set [2] (infra orbital nerves (IONs), read-out: tacrolimus concentration in IONs), the concentration at 14 days was around 196 ng/g. In addition, in data set [2] (muscle, read-out: tacrolimus concentration in muscle), the concentration at 14 days was around 172 ng/g. In addition, the “typical therapeutic trough levels (blood)” value in data set [3] is 10 to 20 ng/g. Besides, in data set [4], the “share of the increase in total neurite growth manifested in axon growth” value was determined as 90%. Moreover, the “neurite growth compared to all other conditions, including media control” value in data set [4] (50 μM and 100 μM tacrolimus) is listed as “significantly decreased”. Also, in data set [4] (3 DIV), the “longest neurite (axon) growth” value was “increased” and the neurite branching result is recorded as “without a change”. Moreover, the “concentration at which total neurite growth was optimal” value in data set [4] (3 DIV, axons and dendrites) came to 5 µM. Moreover, the axonal outgrowth result in data set [4] (assays with RGCs and microglia) is reported as “did not show an increase”. Also, the “total and longest neurite growth” value in data set [4] (assays with RGCs only) is “significantly increased”. The “GAP-43 expression in optic nerve” value in the data set on GAP-43 expression is listed as “no significant GAP-43 expression”.
